{"source": "patent US8846639B2", "about": "“Oligomeric compounds comprising bicyclic nucleosides and having reduced toxicity” (Isis Pharmaceutical, Inc., priority 2008, dated 2014)", "key": {"[1]": {"system": "PTEN mRNA", "experiment": "PTEN mRNA levels in liver, real-time PCR (Example 13 in vivo study)", "conditions": "Balb/c mice, 72 h, normalized to saline control", "method": "(§1) In accordance with the present invention, oligomeric compounds were synthesized and tested for their ability to reduce PTEN expression in vivo at doses of 20 and 60 mg/kg. Six week old male Balb/c mice (Jackson Laboratory, Bar Harbor, Me.) were administered a single intraperitoneal (i.p) injection at either 20 or 60 mg/kg of 4′-CH2—O-2′ BNA 2-10-2 gapped oligomers ([…] and 392745). The 4′-CH2—O-2′ BNA gapped oligomer, 392745, contains non-methylated pyrimidine in the wings. The 4′-CH2—O-2′ BNA gapped oligomer, 392063, contains methylated pyrimidine in the wings (i.e. each cytosine residues in the 4′-CH2—O-2′ BNA wings of 392745 are replaced with 5-methylcytosines, while the thymidine residues in the 4′-CH2—O-2′ BNA wings of 392745 are replaced with 5-methyl thymidines). All internucleoside linkages are phosphorothioates, nucleosides not followed by a subscript are βD-2′-deoxyribonucleosides, nucleosides followed by a subscript 1 are 4′-CH2—O-2′ modified bicyclic nucleosides and ^MeC indicates a 5′-methyl cytosine nucleoside.\n(§2) Each dose group consisted of four animals. The mice were sacrificed 72 hours following the final administration to determine the PTEN mRNA levels in liver using real-time PCR and RIBOGREEN® RNA quantification reagent (Molecular Probes, Inc. Eugene, Oreg.) according to standard protocols. PTEN mRNA levels were determined relative to total RNA (using Ribogreen), prior to normalization to saline-treated control. Results are listed below as the average % inhibition of mRNA expression for each treatment group, normalized to saline-injected control. Resulting dose-response curves were used to determine the IC50. Tm's were assessed in 100 mM phosphate buffer, 0.1 mM EDTA, pH 7, at 260 nm using 4 μM modified oligomers and 4 μM complementary RNA."}, "[2]": {"system": "complementary RNA", "experiment": "Tm of modified oligomers with complementary RNA", "type": "binding", "conditions": "100 mM phosphate buffer, 0.1 mM EDTA, pH 7, 260 nm, 4 μM oligomer and 4 μM complementary RNA", "method": "as §2"}, "[3]": {"experiment": "Liver transaminase levels (ALT, AST) in serum (Example 13)", "type": "in vivo, mice", "conditions": "for transaminase levels with respect to saline treated control: 20 mg/kg; for ALT / AST: serum; for ALT: saline = 24; for AST: saline = 68", "method": "as §1\nLiver transaminase levels, alanine aminotranferease (ALT) and aspartate aminotransferase (AST), in serum were also measured relative to saline injected mice. Increases in the transaminase levels can indicate hepatotoxicity. […] The ALT and AST levels measured for mice treated with 60 mg/kg does of 392745 were decreased about 4.5-fold and 3 fold as compared to 392063 treatment. The approximate liver transaminase levels are listed below."}, "[4]": {"experiment": "Liver, kidney, spleen weights and body weight gain (Example 13)", "type": "in vivo, mice", "conditions": "for Kidney weight / Liver weight / Spleen weight: saline = 1.00; for Body weight gain: saline = 1.05; for liver, kidney, spleen weights or body weight gain compared to saline: normal mice, 20 and 60 mg/kg", "method": "as §1\nThe effects on liver, kidney, spleen weights and body weight gain were also determined."}, "[5]": {"system": "PTEN mRNA", "experiment": "PTEN mRNA levels in liver, real-time PCR (Example 14 in vivo study)", "design": "species or system mice", "conditions": "for PTEN mRNA levels (% inhibition): liver, 72 h; for ED50: estimated, Graphpad Prism, dose at which 50% mRNA reduction is observed", "method": "(§3) Six week old male Balb/c mice (Jackson Laboratory, Bar Harbor, Me.) were administered a single intraperitoneal (i.p) injection with 4′-CH2—O-2′ BNA containing oligomers (392745 and 392063) and 6(S)-4′-CH(CH3)—O-2′ BNA containing oligomers (392749 and 411847) at a does of 3.2, 10, 32, 66 and 100 mg/kg. Oligomers 392063 and 411847 contain LNA nucleosides with methylated pyrimidines, and oligomers 392745 and 392749 contain LNA nucleosides with non-methylated pyrimidines in the wings. All intemucleoside linkages are phosphorothioates, nucleosides not followed by a subscript are βD-2′-deoxyribonucleosides, nucleosides followed by a subscript 1 are 4′-CH2—O-2′ modified bicyclic nucleosides, nucleosides followed by a subscript S are 6(S)-4′-CH(CH3)—O-2′ modified bicyclic nucleosides wherein S indicates the configuration at the 6 carbon atom and ^MeC indicates a 5′-methyl cytosine nucleoside.\nas §2, with “control.” for “control. Resulting dose-response curves were used to determine the IC50. Tm's were assessed in 100 mM phosphate buffer, 0.1 mM EDTA, pH 7, at 260 nm using 4 μM modified oligomers and 4 μM complementary RNA.”\nEstimated ED50 concentrations for each oligomers were calculated using Graphpad Prism. ED50 is the dose at which 50% mRNA reducation is observed."}, "[6]": {"experiment": "Liver transaminase (ALT) levels in serum (Example 14)", "type": "in vivo, mice", "method": "as §3\nLiver transaminase levels, alanine aminotranferease (ALT) and aspartate aminotransferase (AST), in serum were also measured relative to saline injected mice. Increases in the transaminase levels can indicate hepatotoxicity. The approximate liver transaminase levels are listed below."}}}
{"substance": "C1U1TAGCACTGGCC1U1 [ISIS 392745]", "values": [{"measurement": "% inhibition (PTEN mRNA expression in liver)", "setting": "[1]; 20 mg/kg single i.p.", "result": 89, "unit": "%"}, {"measurement": "% inhibition (PTEN mRNA expression in liver)", "setting": "[1]; 60 mg/kg single i.p.", "result": 92, "unit": "%"}, {"measurement": "Tm", "setting": "[2]", "result": 58.6, "unit": "°C"}, {"measurement": "transaminase levels with respect to saline treated control", "setting": "[3]", "result": "not elevated to a level indicative of hepatotoxicity"}, {"measurement": "ALT", "setting": "[3]; 20 mg/kg single i.p.", "result": 29, "unit": "IU/L"}, {"measurement": "AST", "setting": "[3]; 20 mg/kg single i.p.", "result": 81, "unit": "IU/L"}, {"measurement": "ALT level decrease as compared to 392063 treatment", "setting": "[3]; 60 mg/kg", "result": "about 4.5 fold"}, {"measurement": "AST level decrease as compared to 392063 treatment", "setting": "[3]; 60 mg/kg", "result": "~3", "unit": "fold"}, {"measurement": "ALT", "setting": "[3]; 60 mg/kg single i.p.", "result": 108, "unit": "IU/L"}, {"measurement": "AST", "setting": "[3]; 60 mg/kg single i.p.", "result": 202, "unit": "IU/L"}, {"measurement": "Kidney weight", "setting": "[4]; 20 mg/kg", "result": 1.02}, {"measurement": "Liver weight", "setting": "[4]; 20 mg/kg", "result": 1.22}, {"measurement": "Spleen weight", "setting": "[4]; 20 mg/kg", "result": 1.14}, {"measurement": "Body weight gain", "setting": "[4]; 20 mg/kg", "result": 1.06}, {"measurement": "Kidney weight", "setting": "[4]; 60 mg/kg", "result": 1.02}, {"measurement": "Liver weight", "setting": "[4]; 60 mg/kg", "result": 1.25}, {"measurement": "Spleen weight", "setting": "[4]; 60 mg/kg", "result": 1.12}, {"measurement": "Body weight gain", "setting": "[4]; 60 mg/kg", "result": 1.01}, {"measurement": "liver, kidney, spleen weights or body weight gain compared to saline", "setting": "[4]", "result": "did not substantially alter"}, {"measurement": "PTEN mRNA levels (% inhibition)", "setting": "[5]; 3.2 mg/kg single i.p.", "result": 0, "unit": "%"}, {"measurement": "PTEN mRNA levels (% inhibition)", "setting": "[5]; 10 mg/kg single i.p.", "result": 58, "unit": "%"}, {"measurement": "PTEN mRNA levels (% inhibition)", "setting": "[5]; 32 mg/kg single i.p.", "result": 90, "unit": "%"}, {"measurement": "PTEN mRNA levels (% inhibition)", "setting": "[5]; 66 mg/kg single i.p.", "result": 90, "unit": "%"}, {"measurement": "PTEN mRNA levels (% inhibition)", "setting": "[5]; 100 mg/kg single i.p.", "result": 93, "unit": "%"}, {"measurement": "ED50", "setting": "[5]", "result": 9, "unit": "mg/kg"}, {"measurement": "ALT levels", "setting": "[6]; 3.2 mg/kg, serum, saline = 24", "result": 30, "unit": "IU/L"}, {"measurement": "ALT levels", "setting": "[6]; 10 mg/kg, serum, saline = 24", "result": 20, "unit": "IU/L"}, {"measurement": "ALT levels", "setting": "[6]; 32 mg/kg, serum, saline = 24", "result": 13, "unit": "IU/L"}, {"measurement": "ALT levels", "setting": "[6]; 66 mg/kg, serum, saline = 24", "result": 59, "unit": "IU/L"}, {"measurement": "ALT level decrease as compared to 392063 treatment", "setting": "[6]; 100 mg/kg", "result": "about 3.5 fold"}, {"measurement": "ALT levels", "setting": "[6]; 100 mg/kg, serum, saline = 24", "result": 3842, "unit": "IU/L"}, {"measurement": "ALT levels with respect to saline treated control", "setting": "[6]; lower doses (3.2, 10, 32 and 66 mg/kg)", "result": "not elevated to a level indicative of hepatotoxicity"}]}
{"substance": "^MeC1T1TAGCACTGGC^MeC1T1 [ISIS 392063]", "values": [{"measurement": "% inhibition (PTEN mRNA expression in liver)", "setting": "[1]; 20 mg/kg single i.p.", "result": 86, "unit": "%"}, {"measurement": "% inhibition (PTEN mRNA expression in liver)", "setting": "[1]; 60 mg/kg single i.p.", "result": 92, "unit": "%"}, {"measurement": "Tm", "setting": "[2]", "result": 60.5, "unit": "°C"}, {"measurement": "transaminase levels with respect to saline treated control", "setting": "[3]", "result": "not elevated to a level indicative of hepatotoxicity"}, {"measurement": "ALT", "setting": "[3]; 20 mg/kg single i.p.", "result": 28, "unit": "IU/L"}, {"measurement": "AST", "setting": "[3]; 20 mg/kg single i.p.", "result": 56, "unit": "IU/L"}, {"measurement": "ALT and AST levels", "setting": "[3]; 60 mg/kg", "result": "substantially increased"}, {"measurement": "ALT", "setting": "[3]; 60 mg/kg single i.p.", "result": 489, "unit": "IU/L"}, {"measurement": "AST", "setting": "[3]; 60 mg/kg single i.p.", "result": 598, "unit": "IU/L"}, {"measurement": "Kidney weight", "setting": "[4]; 20 mg/kg", "result": 1.02}, {"measurement": "Liver weight", "setting": "[4]; 20 mg/kg", "result": 1.22}, {"measurement": "Spleen weight", "setting": "[4]; 20 mg/kg", "result": 0.99}, {"measurement": "Body weight gain", "setting": "[4]; 20 mg/kg", "result": 1.05}, {"measurement": "Kidney weight", "setting": "[4]; 60 mg/kg", "result": 1.00}, {"measurement": "Liver weight", "setting": "[4]; 60 mg/kg", "result": 1.29}, {"measurement": "Spleen weight", "setting": "[4]; 60 mg/kg", "result": 1.11}, {"measurement": "Body weight gain", "setting": "[4]; 60 mg/kg", "result": 0.99}, {"measurement": "liver, kidney, spleen weights or body weight gain compared to saline", "setting": "[4]", "result": "did not substantially alter"}, {"measurement": "PTEN mRNA levels (% inhibition)", "setting": "[5]; 3.2 mg/kg single i.p.", "result": 0, "unit": "%"}, {"measurement": "PTEN mRNA levels (% inhibition)", "setting": "[5]; 10 mg/kg single i.p.", "result": 68, "unit": "%"}, {"measurement": "PTEN mRNA levels (% inhibition)", "setting": "[5]; 32 mg/kg single i.p.", "result": 88, "unit": "%"}, {"measurement": "PTEN mRNA levels (% inhibition)", "setting": "[5]; 66 mg/kg single i.p.", "result": 90, "unit": "%"}, {"measurement": "PTEN mRNA levels (% inhibition)", "setting": "[5]; 100 mg/kg single i.p.", "result": 91, "unit": "%"}, {"measurement": "ED50", "setting": "[5]", "result": 8, "unit": "mg/kg"}, {"measurement": "ALT levels", "setting": "[6]; 3.2 mg/kg, serum, saline = 24", "result": 20, "unit": "IU/L"}, {"measurement": "ALT levels", "setting": "[6]; 10 mg/kg, serum, saline = 24", "result": 17, "unit": "IU/L"}, {"measurement": "ALT levels", "setting": "[6]; 32 mg/kg, serum, saline = 24", "result": 20, "unit": "IU/L"}, {"measurement": "ALT levels", "setting": "[6]; 66 mg/kg, serum, saline = 24", "result": 4292, "unit": "IU/L"}, {"measurement": "ALT levels", "setting": "[6]; 100 mg/kg, serum, saline = 24", "result": 13811, "unit": "IU/L"}, {"measurement": "ALT levels", "setting": "[6]; higher doses (66 mg/kg and 100 mg/kg)", "result": "substantially increased"}]}
